Assay results reported in publication PMC4852132 (Biochemistry, 2016).
“And” between values parts separate entries of the source, which are not always exact repeats. Identical values can stand only once. Like-named read-outs stand apart in the source and are kept apart here.

Experiments:
PDHc-ec [1] = biological target: T1, PDHc-ec (Escherichia coli, UniProt P0AFG8)
DXPS [2] = biological target: T2, DXPS (Escherichia coli, UniProt P77488); conditions: apo-DXPS with 0.15 mM cofactor, 5 °C, 15 h
OGDHc-h = biological target: T3, OGDHc-h (Homo sapiens, UniProt Q02218); assay: Overall OGDHc-h activity by formation of NADH; type: biochemical
T3 sequence (Q02218 41-1023): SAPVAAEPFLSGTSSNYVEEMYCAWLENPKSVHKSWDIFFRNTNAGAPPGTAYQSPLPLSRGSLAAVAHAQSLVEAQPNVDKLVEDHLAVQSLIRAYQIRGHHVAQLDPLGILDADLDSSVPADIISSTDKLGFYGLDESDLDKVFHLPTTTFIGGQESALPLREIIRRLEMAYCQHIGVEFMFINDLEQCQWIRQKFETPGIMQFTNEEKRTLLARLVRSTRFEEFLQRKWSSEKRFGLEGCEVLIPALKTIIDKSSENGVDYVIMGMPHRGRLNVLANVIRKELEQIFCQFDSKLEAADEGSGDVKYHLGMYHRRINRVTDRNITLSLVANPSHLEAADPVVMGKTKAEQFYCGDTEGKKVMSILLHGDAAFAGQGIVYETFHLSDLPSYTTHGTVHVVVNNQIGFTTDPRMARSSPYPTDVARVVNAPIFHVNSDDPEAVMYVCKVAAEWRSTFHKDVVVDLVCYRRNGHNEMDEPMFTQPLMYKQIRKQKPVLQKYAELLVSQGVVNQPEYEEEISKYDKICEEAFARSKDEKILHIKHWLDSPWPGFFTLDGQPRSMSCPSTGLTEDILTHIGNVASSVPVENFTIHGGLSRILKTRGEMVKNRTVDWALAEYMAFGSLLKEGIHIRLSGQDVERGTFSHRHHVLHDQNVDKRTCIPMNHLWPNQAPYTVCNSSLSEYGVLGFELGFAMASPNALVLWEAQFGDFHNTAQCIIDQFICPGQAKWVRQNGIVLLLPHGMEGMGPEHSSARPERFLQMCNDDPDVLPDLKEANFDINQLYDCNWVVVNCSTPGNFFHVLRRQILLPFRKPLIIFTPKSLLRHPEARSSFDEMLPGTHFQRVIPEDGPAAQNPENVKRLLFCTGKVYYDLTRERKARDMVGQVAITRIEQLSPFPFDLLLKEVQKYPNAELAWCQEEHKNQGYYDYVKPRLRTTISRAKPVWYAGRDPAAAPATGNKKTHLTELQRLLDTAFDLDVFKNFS
T3 sequence (P36957 68-453 partner): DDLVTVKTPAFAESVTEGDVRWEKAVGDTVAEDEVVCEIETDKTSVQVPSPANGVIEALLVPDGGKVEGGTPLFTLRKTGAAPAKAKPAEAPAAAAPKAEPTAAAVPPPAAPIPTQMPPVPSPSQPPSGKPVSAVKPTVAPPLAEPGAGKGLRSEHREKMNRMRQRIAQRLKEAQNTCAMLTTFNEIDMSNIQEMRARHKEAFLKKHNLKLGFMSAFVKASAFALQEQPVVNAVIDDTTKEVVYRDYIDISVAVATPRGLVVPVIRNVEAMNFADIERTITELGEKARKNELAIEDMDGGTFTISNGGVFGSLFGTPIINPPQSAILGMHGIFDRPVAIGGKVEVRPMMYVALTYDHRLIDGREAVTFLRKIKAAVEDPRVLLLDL
T3 sequence (P09622 36-509 partner): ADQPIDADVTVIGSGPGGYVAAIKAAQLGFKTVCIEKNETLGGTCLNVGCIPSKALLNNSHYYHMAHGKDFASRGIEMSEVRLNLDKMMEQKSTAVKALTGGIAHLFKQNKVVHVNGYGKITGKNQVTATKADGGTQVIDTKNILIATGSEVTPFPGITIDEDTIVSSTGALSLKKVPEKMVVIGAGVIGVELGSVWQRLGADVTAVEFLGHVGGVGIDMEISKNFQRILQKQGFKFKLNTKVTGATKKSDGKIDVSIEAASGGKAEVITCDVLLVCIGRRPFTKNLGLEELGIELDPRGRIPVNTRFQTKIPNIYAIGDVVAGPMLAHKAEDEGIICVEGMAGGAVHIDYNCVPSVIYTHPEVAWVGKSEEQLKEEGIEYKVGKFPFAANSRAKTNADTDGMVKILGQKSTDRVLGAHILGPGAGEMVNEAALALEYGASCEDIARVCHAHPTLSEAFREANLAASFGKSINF

E1o-ec = E1o-ec (Escherichia coli, UniProt P0AFG3); assay: E1o-ec specific activity; type: biochemical
PDHc-ec [3] = biological target: T1, PDHc-ec; conditions: ThDP binding to PDHc-ec; cited from earlier work
E1p-ec [4] = biological target: T4, E1p-ec (Escherichia coli, UniProt P0AFG8); assay: biochemical
E1p-ec [5] = biological target: T4, E1p-ec; conditions: E1p-ec complexed with ThDP; cited from earlier work
DXPS [6] = biological target: T2, DXPS; assay: biochemical
[7] = MeOThDP, PDHc-ec reconstituted from apo-E1p-ec, from lag phase

T2 sequence (P77488 whole entry): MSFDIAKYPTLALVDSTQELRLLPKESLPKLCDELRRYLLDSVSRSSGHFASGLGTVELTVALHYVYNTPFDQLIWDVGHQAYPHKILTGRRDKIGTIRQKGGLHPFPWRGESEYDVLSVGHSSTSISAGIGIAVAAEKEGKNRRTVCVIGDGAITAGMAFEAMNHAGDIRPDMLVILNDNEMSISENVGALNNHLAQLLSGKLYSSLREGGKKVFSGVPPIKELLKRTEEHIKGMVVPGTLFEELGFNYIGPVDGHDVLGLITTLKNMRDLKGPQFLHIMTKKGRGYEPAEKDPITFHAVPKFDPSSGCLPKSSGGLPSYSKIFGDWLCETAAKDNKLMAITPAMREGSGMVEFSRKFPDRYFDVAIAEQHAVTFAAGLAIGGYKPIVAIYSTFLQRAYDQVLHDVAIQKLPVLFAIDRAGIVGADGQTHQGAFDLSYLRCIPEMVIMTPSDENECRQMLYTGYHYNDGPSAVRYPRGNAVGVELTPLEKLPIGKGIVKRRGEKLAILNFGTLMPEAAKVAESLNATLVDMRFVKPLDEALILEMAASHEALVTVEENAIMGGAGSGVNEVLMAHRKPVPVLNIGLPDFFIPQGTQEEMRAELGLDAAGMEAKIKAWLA
Sequence of E1o-ec (P0AFG3 whole entry): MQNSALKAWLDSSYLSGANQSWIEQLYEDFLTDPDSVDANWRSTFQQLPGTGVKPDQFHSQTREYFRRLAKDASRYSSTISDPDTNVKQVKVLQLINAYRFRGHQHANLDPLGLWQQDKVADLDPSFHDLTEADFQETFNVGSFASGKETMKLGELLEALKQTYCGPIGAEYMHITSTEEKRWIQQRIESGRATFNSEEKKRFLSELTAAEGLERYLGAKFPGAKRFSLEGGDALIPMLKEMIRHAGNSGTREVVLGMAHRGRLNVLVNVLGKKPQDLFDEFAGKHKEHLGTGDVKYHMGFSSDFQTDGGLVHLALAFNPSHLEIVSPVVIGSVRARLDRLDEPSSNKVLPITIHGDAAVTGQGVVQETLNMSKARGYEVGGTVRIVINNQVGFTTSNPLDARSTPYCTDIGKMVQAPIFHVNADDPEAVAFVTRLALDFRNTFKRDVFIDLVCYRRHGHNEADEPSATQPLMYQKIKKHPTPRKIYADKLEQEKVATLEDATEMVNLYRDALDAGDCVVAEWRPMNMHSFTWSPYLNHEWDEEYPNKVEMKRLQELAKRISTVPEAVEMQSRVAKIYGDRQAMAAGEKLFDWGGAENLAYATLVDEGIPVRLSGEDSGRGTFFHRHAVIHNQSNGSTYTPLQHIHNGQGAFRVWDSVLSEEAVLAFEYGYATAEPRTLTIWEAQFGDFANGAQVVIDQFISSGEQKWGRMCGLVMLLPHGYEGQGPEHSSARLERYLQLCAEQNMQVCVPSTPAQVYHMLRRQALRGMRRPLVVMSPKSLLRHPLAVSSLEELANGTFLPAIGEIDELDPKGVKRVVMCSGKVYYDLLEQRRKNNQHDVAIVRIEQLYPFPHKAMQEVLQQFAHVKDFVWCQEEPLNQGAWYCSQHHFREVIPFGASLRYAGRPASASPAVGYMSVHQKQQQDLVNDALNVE
T1 sequence (P0A9P0 2-474): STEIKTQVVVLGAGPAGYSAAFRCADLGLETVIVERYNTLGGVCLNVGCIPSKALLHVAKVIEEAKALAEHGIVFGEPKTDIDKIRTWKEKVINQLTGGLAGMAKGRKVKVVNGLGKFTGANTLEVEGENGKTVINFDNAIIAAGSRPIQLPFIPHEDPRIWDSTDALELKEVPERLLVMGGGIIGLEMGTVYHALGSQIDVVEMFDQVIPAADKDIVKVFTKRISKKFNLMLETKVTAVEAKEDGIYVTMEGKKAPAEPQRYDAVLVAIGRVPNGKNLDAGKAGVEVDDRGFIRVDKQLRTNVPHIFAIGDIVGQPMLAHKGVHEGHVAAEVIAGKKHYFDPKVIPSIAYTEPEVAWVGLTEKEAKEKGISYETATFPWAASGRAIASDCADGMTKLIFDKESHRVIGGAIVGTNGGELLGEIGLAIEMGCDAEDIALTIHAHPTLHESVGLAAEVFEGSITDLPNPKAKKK
T1 sequence (P06959 2-630, further chain): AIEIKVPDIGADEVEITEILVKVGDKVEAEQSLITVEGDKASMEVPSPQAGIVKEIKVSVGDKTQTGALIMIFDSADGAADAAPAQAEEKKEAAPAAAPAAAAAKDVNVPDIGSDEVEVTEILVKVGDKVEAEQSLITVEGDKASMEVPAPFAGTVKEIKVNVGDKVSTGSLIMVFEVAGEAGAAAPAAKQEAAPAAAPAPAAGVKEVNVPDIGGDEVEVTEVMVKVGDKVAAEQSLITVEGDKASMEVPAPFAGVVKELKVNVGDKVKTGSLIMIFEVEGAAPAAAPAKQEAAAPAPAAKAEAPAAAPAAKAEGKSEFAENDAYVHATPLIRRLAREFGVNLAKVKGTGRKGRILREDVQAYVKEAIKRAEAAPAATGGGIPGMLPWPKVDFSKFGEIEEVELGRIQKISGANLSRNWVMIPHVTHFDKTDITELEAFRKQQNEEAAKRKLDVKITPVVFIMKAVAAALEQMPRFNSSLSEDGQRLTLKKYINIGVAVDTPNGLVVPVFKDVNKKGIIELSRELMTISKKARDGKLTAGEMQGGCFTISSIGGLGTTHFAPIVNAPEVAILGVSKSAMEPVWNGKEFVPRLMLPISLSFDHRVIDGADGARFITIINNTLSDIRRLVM
T1 sequence (P0AFG8 2-887): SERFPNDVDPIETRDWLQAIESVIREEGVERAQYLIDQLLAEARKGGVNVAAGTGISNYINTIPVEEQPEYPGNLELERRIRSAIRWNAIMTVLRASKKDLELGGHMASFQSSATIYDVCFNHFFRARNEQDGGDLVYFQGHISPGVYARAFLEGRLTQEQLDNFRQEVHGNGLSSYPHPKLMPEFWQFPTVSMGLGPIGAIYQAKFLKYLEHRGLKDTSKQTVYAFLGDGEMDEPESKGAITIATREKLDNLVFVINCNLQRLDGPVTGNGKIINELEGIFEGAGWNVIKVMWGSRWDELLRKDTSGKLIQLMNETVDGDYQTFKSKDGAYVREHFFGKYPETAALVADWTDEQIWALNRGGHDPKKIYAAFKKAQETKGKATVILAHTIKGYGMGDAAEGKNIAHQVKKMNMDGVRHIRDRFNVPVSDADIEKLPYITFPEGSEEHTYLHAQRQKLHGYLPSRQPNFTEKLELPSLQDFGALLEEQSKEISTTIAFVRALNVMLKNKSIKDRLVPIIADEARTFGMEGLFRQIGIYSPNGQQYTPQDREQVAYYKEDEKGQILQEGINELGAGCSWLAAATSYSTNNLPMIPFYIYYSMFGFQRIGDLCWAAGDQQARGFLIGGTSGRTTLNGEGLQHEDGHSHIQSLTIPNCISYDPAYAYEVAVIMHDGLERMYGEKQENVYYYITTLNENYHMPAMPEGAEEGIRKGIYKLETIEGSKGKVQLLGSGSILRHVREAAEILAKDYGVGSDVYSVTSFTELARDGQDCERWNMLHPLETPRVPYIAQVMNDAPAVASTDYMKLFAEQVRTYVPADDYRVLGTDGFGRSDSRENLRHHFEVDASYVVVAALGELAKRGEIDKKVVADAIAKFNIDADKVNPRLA
T4 sequence (P0AFG8 2-887 limits assumed): as the sequence (P0AFG8 2-887) above

Structure (SMILES) | K1 binding constant (PDHc-ec [1]; MeOThDP, PDHc-ec reconstituted from apo-E1p-ec, E2p-ec, E3-ec, from lag phase) [M⁻¹] | k2 forward rate constant of binding (PDHc-ec [1]; [7]) [s⁻¹] | k3 forward rate constant for second cofactor binding (PDHc-ec [1]; [7]) [M⁻¹ s⁻¹] | k-2 dissociation rate constant (PDHc-ec [1]; [7]) [s⁻¹] | k-3 reverse rate constant for dissociation of second cofactor (PDHc-ec [1]; [7]) [s⁻¹] | k3 times lower than that for ThDP (PDHc-ec [1]; binding of second MeOThDP vs ThDP) | Kd (PDHc-ec [1]; read-out: Kd,MeOThDP calculated as 1/K1,MeOThDP, from Table 2) [µM] | formation of (R)-acetolactate from pyruvate (DXPS [2]) | overall OGDHc activity, percent of that with ThDP (OGDHc-h) [%] | E1o specific activity, percent of that with ThDP (E1o-ec; E1o-ec) [%] | E1o specific activity (E1o-ec; E1o-ec alone) | K1 binding constant (PDHc-ec [3]) [M⁻¹] | k2 forward rate constant of binding (PDHc-ec [3]) [s⁻¹] | k3 forward rate constant for second cofactor binding (PDHc-ec [3]) [M⁻¹ s⁻¹] | k-2 dissociation rate constant (PDHc-ec [3]) [s⁻¹] | k-3 reverse rate constant for dissociation of second cofactor (PDHc-ec [3]) [s⁻¹] | Kd (E1p-ec [4]) [µM] | rate constant of reductive acetylation of LDh-ec (E1p-ec [5]) [s⁻¹] | Kd (DXPS [6]) [µM]
COc1ncc(C[n+]2csc(CCOP(=O)(O)OP(=O)(O)O)c2C)c(N)n1 [MeOThDP, 2′-methoxythiamin diphosphate] | 300000 | 0.0087 | 49 | 0.0033 | 0.0069 | ~ 14 times | 3.45 ± 0.74 | not the case | 64 | – | – | – | – | – | – | – | – | – | –
Cc1ncc(C[n+]2csc(CCOP(=O)([O-])OP(=O)(O)O)c2C)c(N)n1 [ThDP, thiamin diphosphate] | – | – | – | – | – | – | – | formation of (R)-acetolactate | 100 | 100 | 0.54 ± 0.03 µmol min^−1 (mg of E1o)^−1 and 0.54 ± 0.31 µmol min^−1 (mg of E1o)^−1 | 1.2e+06 | 0.0112 | 710 | 0.0038 | 0.0076 | 7 ± 0.9 | 52 | 3.5 ± 0.1
